Measurements reported in patent publication US20230243002A1, “ASSAY OT DETECT VIRUS” (priority 2020, published 2023).

Tests used:
[1] = test system: luminescence output of luciferase; assay: Compounds and reagents that inhibit or interfere with the ID-Oligo luminescence methods; assay type: biochemical
Text: Various compounds and components may interfere with the methods described herein. […] Thus, in some embodiments, the sample is free of compounds and components that inhibit the luminescence output of luciferase. Accordingly, the sample may be free of sodium-azide, sodium-citrate, heparin, EDTA, EGTA, proteases, phosphates, 2,2′-azino-di-(3-ethylbenzothiazoline)-6-sulfonic acid (ABTS), and/or butylated hydroxytoluene (BHT). In various related aspects, the present application also relates to devices and kits for performing the methods described herein. Such kits contain monitors, reagents and procedures that can be utilized in a clinical or research setting or adapted for either the field laboratory or on-site use. In particular, kits comprising the disclosed reagents used in practicing the methods described herein include any of a number of means for detecting the captured target nucleic acid molecule and measuring the bioluminescent signal produced subsequent to target capture, along with appropriate instructions, are contemplated. Suitable kits comprise reagents sufficient for performing an assay, or one or more independent steps of an assay, to detect a target nucleic acid molecule, as described herein above.

[2] = test system: coupled ATPS-luciferase reaction; conditions: 0.04% Na-Azide, LU measured for 200 seconds
luciferase = luciferase (Photinus pyralis, UniProt P08659); assay: Background LU of reaction with only luciferase and no viral RNA, dATP versus dATPαS; assay type: biochemical
[3] = test system: SARS-CoV-2, USA-WA1/2020 RNA; assay: ID-Oligos assay signal output with dC/T/G only or supplemented with dATPαS; assay type: biochemical; conditions: supplemented with 0.1 mM dATPαS versus only dT/G/C

luciferase, sequence (P08659 whole entry): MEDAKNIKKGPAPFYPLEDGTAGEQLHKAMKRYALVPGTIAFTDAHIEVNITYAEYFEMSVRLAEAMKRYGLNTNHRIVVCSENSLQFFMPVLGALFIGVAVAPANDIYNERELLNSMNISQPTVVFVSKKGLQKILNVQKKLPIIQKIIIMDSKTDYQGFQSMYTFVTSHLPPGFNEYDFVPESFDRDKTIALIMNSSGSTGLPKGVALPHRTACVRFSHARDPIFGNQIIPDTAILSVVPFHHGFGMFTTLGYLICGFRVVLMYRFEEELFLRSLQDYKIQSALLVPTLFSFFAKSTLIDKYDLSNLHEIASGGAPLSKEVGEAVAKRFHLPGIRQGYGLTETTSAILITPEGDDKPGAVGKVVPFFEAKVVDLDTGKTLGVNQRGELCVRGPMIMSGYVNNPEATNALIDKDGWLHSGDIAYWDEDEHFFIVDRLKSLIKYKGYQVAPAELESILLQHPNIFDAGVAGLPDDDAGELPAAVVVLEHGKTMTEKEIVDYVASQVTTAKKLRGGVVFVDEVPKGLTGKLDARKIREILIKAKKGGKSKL

Compound | inhibit or interfere with the methods described herein [1] | also measured
[N-]=[N+]=[N-].[Na+] [Na-azide] | inhibit or interfere | effect on the luminescence output of the coupled ATPS-luciferase reaction [2]: inhibitory effect
heparin | inhibit or interfere | –
O=C([O-])CC(O)(CC(=O)[O-])C(=O)[O-].[Na+].[Na+].[Na+] [Na-citrate] | inhibit or interfere | –
Cc1cc(C(C)(C)C)c(O)c(C(C)(C)C)c1 [BHT, butylated hydroxytoluene] | inhibit or interfere | –
O=C(O)CN(CCN(CC(=O)O)CC(=O)O)CC(=O)O [EDTA] | inhibit or interfere | –
O=C(O)CN(CCOCCOCCN(CC(=O)O)CC(=O)O)CC(=O)O [EGTA] | inhibit or interfere | –
CCn1c(=NN=c2sc3cc(S(=O)(=O)O)ccc3n2CC)sc2cc(S(=O)(=O)O)ccc21 [ABTS, 2,2′-azino-di-(3-ethylbenzothiazoline)-6-sulfonic acid] | inhibit or interfere | –
Nc1ncnc2c1ncn2[C@H]1C[C@H](O)[C@@H](COP(O)(=S)OP(=O)(O)OP(=O)(O)O)O1 (some centres unmarked) [dATPαS] | – | improved signal-to-noise ratio (luciferase): ~2 orders of magnitude; LU background (luciferase; 0.1 mM/1 mM, luciferase only, no viral RNA): reduction; reaction slope [3]: Higher slope values
